Values quoted from earlier work in patent US6071521A, “Pharmaceutical composition having an antitumor activity and a process for preparation thereof” (priority 1989, dated 2000).

Details: water, alcohol, chloroform, and chlorinated ethylene

In the case of `C=C1C=CC(=O)O1` [protoanemonin, Protoanemonin], the solubility is listed as “dissolved in water, alcohol, chloroform, and chlorinated ethylene”.
